Reference: patent US8653304B2, “2,3-dihydro-1H-indene-2-yl urea derivative and pharmaceutical application of same” (Toray Industries, Inc., priority 2009, dated 2014)

Tests used:
[1] = test system: skin swelling response in type I allergic dermatitis model; experiment: Skin swelling response in type I allergic dermatitis model; type: in vivo; settings: BALB/c mouse, 20 μL of 0.5 w/v % solution applied to auricle 1 hour before induction
Description: (§1) The action of Compound (I) on skin swelling response in mouse allergic dermatitis models was studied. As the allergic dermatitis models, models partially modified from a type I allergic dermatitis model and a type IV allergic dermatitis model described in documents (Inflamm. Res., 1998, Vol. 47, pp. 506-511 and Int. Arch. Allergy. Appl. Immunol., 1990, Vol. 92, pp. 356-360) were used.
To each BALB/c mouse (female, 7-week old, Charles River Laboratories Japan, Inc.), mouse IgE anti-DNP antibody (0.05 mg/body, […] CORPORATION) was intravenously administered to passively sensitize the mouse. Twenty four hours after the sensitization, 20 μL of 0.38% DNFB (SIGMA) dissolved in acetone:olive oil (4:1) was applied to the auricle of the mouse to induce inflammation. From after the induction to 24 hours, the thickness of the auricle was measured with time using a Digimatic Indicator (Mitutoyo). Each test compound was dissolved in ethanol, and 20 μL of 0.5 w/v % solution was applied to the auricle at 1 hour before the induction.
The swelling ratio of the auricle was calculated according to the following equation. […] Auricular Swelling Ratio(%)=(A−B)/B×100

TNFα production [2] = experiment: Cytokine production suppressing activity using human whole blood (LPS stimulation); type: cell-based; settings: LPS 200 ng/mL, 37° C., 5 hours
Experimental: Using human whole blood, the inhibitory action of Compound (I) on the TNFα production by LPS stimulation was studied by a method partially modified from the method described in Journal of Medicinal Chemistry (2003, Vol. 46, pp. 4676-4686).
A solution of each test compound in 100% DMSO and human blood were mixed in a 96-well flat-bottom plate. Thereafter, LPS (Final Concentration: 200 ng/mL) was added, and the resulting mixture was allowed to react at 37° C. for 5 hours (the final concentration of DMSO was 0.2%). After the reaction, the resultant was centrifuged for 20 minutes at room temperature, and the supernatant was collected. For the measurement of the TNFα amount in the supernatant, a human cytokine kit (CIS bio international) was used. As a comparative control compound, Comparative Compound 2 was used.

[3] = test system: colonic disorders in DSS-induced chronic colitis model; experiment: Colonic disorders in DSS-induced chronic colitis model; type: in vivo; settings: BALB/c mouse, oral 10 mg/kg once Day 27, twice a day Day 28-31; scores Day 28-32
Description: (§2) The action of Compound (I) on colonic disorders in inflammatory bowel disease models was studied. As the inflammatory bowel disease models, models partially modified from a TNBS-induced colitis model and a DSS-induced chronic colitis model described in documents (Gastroenterology, 1989, Vol. 96, pp. 29-36 and Am. J. Physiol. Gastrointest. Liver Physiol., 2004, Vol. 287, pp. G115-124) were used.
To each BALB/cCrSlc mouse (female, 9-week old, Japan SLC, Inc.), DSS (Molecular Weight: 36-50 kDa; MP Biomedicals) dissolved in sterile ultrapure water was administered via free drinking for 5 days from the day of the start of the administration via drinking water (this day was considered as Day 0 after the start of the administration via drinking water), and then switched to administration of sterile ultrapure water via free drinking for 5 days. This cycle was repeated again, and DSS was further administered via free drinking for another 7 days to produce the colitis model. As an index of colitis symptoms, stool consistency scores were used. The stool consistency scores were based on the following criteria: normal stool was defined as score 0; loose stool was defined as score 2; and diarrhea was defined as score 4. […]

[4] = test system: colonic disorders in TNBS-induced colitis model; experiment: Colonic disorders in TNBS-induced colitis model; type: in vivo; settings: Wistar rat, oral 3 mg/kg once on TNBS day then twice a day for 4 days, colon 5 days after TNBS
Description: as §2
To each Slc:Wistar rat (male, 12-week old, Japan SLC, Inc.), TNBS (Wako Pure Chemical Industries, Ltd.) dissolved in ethanol was rectally administered under anesthesia, and the TNBS solution was held in the rectum for 1 hour to produce the colitis model. These rats had been fasted from 2 days before the TNBS administration to the day of the TNBS administration. Five days after the TNBS administration, the colon was isolated from the each rat, and the macroscopic damage score (which is a total of adhesion score, diarrhea score and ulcer score) was recorded as an index of damage in the colon. The macroscopic damage score was calculated based on the scores of Dubigeon et al. (Eur. J. Pharmacol., 2001, Vol. 431, pp. 103-110) and the scores of Venkova et al. (J. Pharmacol. Exp. Ther., 2004, Vol. 308, pp. 206-213). […]

[5] = test system: skin swelling response in type IV allergic dermatitis model; experiment: Skin swelling response in type IV allergic dermatitis model; type: in vivo; settings: BALB/c mouse, 24 hours after induction
Experimental: as §1
To the back of each BALB/c mouse (female, 7-week old, Charles River Laboratories Japan, Inc.), 25 μL of 0.5% DNFB solution dissolved in acetone:olive oil (4:1) was applied. On the next day, the same operations were repeated to actively sensitize the mouse. Four days after the sensitization, 20 μL of 0.2% DNFB solution dissolved in acetone:olive oil (4:1) was applied to the auricle of the sensitized mouse to induce inflammation. Twenty four hours after the induction, the thickness of the auricle was measured using a Digimatic Indicator (Mitutoyo). Each test compound was dissolved in ethanol and 20 μL of 0.5 w/v % solution was applied to the auricle at 1 hour before the induction; or each test compound was suspended in 0.5% methylcellulose (Wako Pure Chemical Industries, Ltd.) and the resulting solution was orally administered at 30 mg/kg at 1 hour before the induction. The swelling ratio of the auricle was calculated according to the following equation: Auricular Swelling Ratio(%)=(A−B)/B×100

human p38 MAPK α = human p38 MAPK α (Homo sapiens (Human), UniProt Q16539); experiment: Evaluation of p38 MAPK inhibitory activity (Alpha Screen, ATF2 phosphorylation); type: biochemical; settings: p38α/SAPK2a 1.5 nM, ATP 100 μM, biotinylated ATF2 30 nM
Experimental: Using human p38 MAPK α, the p38 MAPK inhibitory activity of Compound (I) was studied by a method partially modified from the method described in Current Medicinal Chemistry (2004, No. 11, pp. 721-730).
A solution of each test compound solution in 100% DMSO and a p38α/SAPK2a solution (Final Concentration: 1.5 nM) (Invitrogen) were added to a 384-well plate, and then the plate was incubated at room temperature in a dark place for 1 hour. Thereafter, ATP (Final Concentration: 100 μM), which is a phosphate donor, and biotinylated ATF2 (Final Concentration: 30 nM) (upstate), which is a substrate, were added, and the resulting mixture was allowed to react at room temperature in a dark place for 1 hour (the final concentration of DMSO was 0.25%). After the reaction, an anti-phosphorylated ATF2 antibody (Final Concentration: 1 nM) (Cell Signaling), anti-IgG acceptor beads (Final Concentration: 20 μg/mL) (PerkinElmer) and streptavidin donor beads (Final Concentration: 20 μg/mL) (PerkinElmer) were added, and the resultant was incubated at room temperature in a dark place for 1 hour. Using a microplate analyzer (Fusion-α, Packard) in Alpha Screen method (Amplified Luminescent Proximity Homogeneous Assay), the light emission was detected. The IC50 value of each compound was calculated by sigmoidal dose-response regression using Prism 4.02 (GraphPad Software, Inc.).

TNFα production [6] = experiment: Mouse LPS-induced cytokine production model; type: in vivo; settings: BALB/c mouse, 50 mg/kg oral 30 minutes before LPS 1 mg/kg i.p., serum 60 minutes after LPS
Experimental: The action of Compound (I) on the TNFα production induced by LPS administration in a mouse was studied by a method partially modified from the method described in Journal of Immunology (1992, Vol. 148, pp. 1890-1897).
To each BALB/c mouse (male, 7 to 9-week old, Charles River Laboratories Japan, Inc.), LPS (0111:B4, SIGMA) was intraperitoneally administered at a dose of 1 mg/kg. Sixty minutes after the LPS administration, blood was collected from the abdominal vena cava under anesthesia and centrifuged for 15 minutes at 4° C. to obtain a serum. For the measurement of TNF-α in the serum, ELISA Development System (R&D Systems) was used. Each test compound was dissolved in DMSO (Final Concentration: 2%), and then the obtained solution was dissolved in a 27% aqueous solution of 2-hydroxypropyl-β-cyclodextrin (hereinafter referred to as “HP-β-CD”; Nihon Shokuhin Kako Co., Ltd.). Thirty minutes before the LPS administration, the resulting solution was orally administered at 50 mg/kg.

[7] = Metabolic stability in human CYP (human liver microsomes); type: in vitro ADME; settings: human liver microsomes 0.5 mg/mL, NADPH, 37° C., comparative control compounds 5 μM
Experimental: Each test compound was mixed at a concentration of 2 μM with a phosphate buffer solution containing Human liver microsomes (Xenotech) in an amount of 0.5 mg/mL. Thereafter, NADPH was added thereto, and the obtained mixture was allowed to react at 37° C. for up to 30 minutes. The reaction was terminated by adding acetonitrile, and then the resultant was centrifuged for 10 minutes at 4° C. to collect a supernatant. The supernatant was pretreated by methanol extraction method, and the concentration of the compound was analyzed by LC/MS/MS (ESI positive mode). The compound remaining rate was calculated from the obtained concentration of the compound.

[8] = test system: hyperalgesia in Bennett model; experiment: Hyperalgesia in neuropathic pain model (Bennett model), plantar test; type: in vivo; settings: SD rat, Bennett model day 14, oral 100 mg/kg, 90 minutes after administration; FIG. 2
Description: The action of Compound (I) on hyperalgesia in pain models was studied. As the pain models, models partially modified from an inflammatory pain model (a carrageenin paw edema pain model) and neuropathic pain models (Bennett model and Chung model) described in documents (Anesth. Analg., 2009, Vol. 108, pp. 1680-1687; Pain, 1988, Vol. 33, pp. 87-107; and Pain, 1992, Vol. 50, pp. 355-363) were used.
The Bennett model was produced by lightly ligating the sciatic nerve in the left thigh of each Crl:CD (SD) rat (male, 6-week old, Charles River Laboratories Japan, Inc.) at 4 points with chromic catgut (4-0). Fourteen days after the Bennett model was produced, each test compound was orally administered, and plantar test was performed 90 minutes after the administration. The plantar test was carried out by measuring the pain threshold (sec) of the left footpad (model foot) using a plantar thermal stimulation device (Plantar test 7370, Ugo Basile) wherein the thermal stimulus intensity was set to 60. Each test compound was suspended in 0.5 w/v % methylcellulose (Wako Pure Chemical Industries, Ltd.) and the obtained solution was orally administered. Compound 46b described in the Examples was administered at a dose of 100 mg/kg, and gabapentin (Toronto Research Chemicals), which is an anticonvulsant, was administered as a comparative control agent at a dose of 100 mg/kg.

Sequence of human p38 MAPK α (Q16539 whole entry): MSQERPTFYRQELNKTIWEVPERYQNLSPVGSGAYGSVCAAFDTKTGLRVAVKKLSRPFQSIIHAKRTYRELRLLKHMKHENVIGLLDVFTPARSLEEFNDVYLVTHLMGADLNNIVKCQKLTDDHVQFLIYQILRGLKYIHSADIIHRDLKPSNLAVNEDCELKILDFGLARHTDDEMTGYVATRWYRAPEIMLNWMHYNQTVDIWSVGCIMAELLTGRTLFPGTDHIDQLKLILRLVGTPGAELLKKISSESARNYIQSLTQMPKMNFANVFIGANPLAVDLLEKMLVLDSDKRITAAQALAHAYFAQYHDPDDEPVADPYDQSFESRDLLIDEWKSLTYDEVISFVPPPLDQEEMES

COc1c(NC(=O)N[C@H]2Cc3c(F)cccc3[C@H]2O)cc(C(C)(C)C)cc1[C@@H](O)C(F)(F)F (single isomer, unassigned) [Compound 50b]
suppression ratio on immediate response (auricular swelling AUC 0-4 hours) [1]: 33.4% | suppression ratio on late response (auricular swelling AUC 5-10 hours) [1]: 50.2% | IC50 (TNFα production [2]): 46 nM | stool consistency score (total) [3]: 6.5±0.6 | macroscopic damage score [4]: 5.2±1.1 | suppression ratio of auricular swelling, oral administration ([5]; 30 mg/kg oral 1 hour before induction): 54.4% | suppression ratio of auricular swelling, auricular application ([5]; 20 μL of 0.5 w/v % solution on auricle 1 hour before induction): 48.0% | IC50 (human p38 MAPK α): 35 nM

COc1c(NC(=O)N[C@@H]2Cc3ccccc3[C@@H]2O)cc(C(C)(C)C)cc1C(C)(C)C#N [Comparative Compound 3, 1-(5-tert-butyl-3-(2-cyanopropan-2-yl)-2-methoxyphenyl)-3-((1S,2R)-1-hydroxy-2,3-dihydro-1H-indene-2-yl)urea, reference compound]
Suppression Ratio of TNFα production (TNFα production [6]): 17.0% | microsomal CLint at 5 μM [7]: 450 µL/min/mg

NCC1(CC(=O)O)CCCCC1 [gabapentin, reference compound]
pain threshold (sec), plantar test, compared to solvent-administered group [8]: significant difference
